Data from paper PMC7758046, “Novel piperazine–chalcone hybrids and related pyrazoline analogues targeting VEGFR-2 kinase; design, synthesis, molecular docking studies, and anticancer evaluation” (Journal of Enzyme Inhibition and Medicinal Chemistry, 2020).

Tests used:
HT29 (Colon cancer) = assay: NCI-60 single-dose anticancer screen; format: cell-based, human; conditions: for cell growth promotion: 10 µM single dose; for inhibition at 10 µM: Homo sapiens, HT-29, 10 µM single dose, read-out: cell growth inhibition
Experimental: (§1) Six compounds were selected by the NCI, according to NCI’s DTP selection guidelines, for evaluation of their anticancer activity at a single-dose of 10 µM against 60 human tumours cell lines.
(§2) In vitro cytotoxicity was performed in NCI according to reported method.

[1] = tested on: EKVX (Non-small cell lung cancer); assay: NCI-60 single-dose anticancer screen; format: cell-based, human; conditions: 10 µM single dose
Experimental: as §1, §2

RPMI-8226 (Leukaemia) = assay: NCI-60 single-dose anticancer screen; format: cell-based, human; conditions: 10 µM single dose
Experimental: as §1, §2

HCT-116 (Colon cancer) = assay: NCI-60 single-dose anticancer screen; format: cell-based, human; conditions: for cell growth promotion: 10 µM single dose; for inhibition at 10 µM: Homo sapiens, read-out: cell growth inhibition
Experimental: as §1, §2

MCF7 (Breast cancer) = assay: NCI-60 single-dose anticancer screen; format: cell-based, human; conditions: 10 µM single dose
Experimental: as §1, §2

SK-MEL-28 (Melanoma) = assay: NCI-60 single-dose anticancer screen; format: cell-based, human; conditions: 10 µM single dose
Experimental: as §1, §2

[2] = tested on: MDA-MB-231/ATCC (Breast cancer); assay: NCI-60 single-dose anticancer screen; format: cell-based, human; conditions: 10 µM single dose
Experimental: as §1, §2

MOLT-4 (Leukaemia) = assay: NCI-60 single-dose anticancer screen; format: cell-based, human; conditions: 10 µM single dose
Experimental: as §1, §2

UACC-257 (Melanoma) = assay: NCI-60 single-dose anticancer screen; format: cell-based, human; conditions: 10 µM single dose
Experimental: as §1, §2

HL-60(TB) (Leukaemia) = assay: NCI-60 single-dose anticancer screen; format: cell-based, human; conditions: 10 µM single dose
Experimental: as §1, §2

U251 (CNS cancer) = assay: NCI-60 single-dose anticancer screen; format: cell-based, human; conditions: 10 µM single dose
Experimental: as §1, §2

PC-3 (Prostate cancer) = assay: NCI-60 single-dose anticancer screen; format: cell-based, human; conditions: 10 µM single dose
Experimental: as §1, §2

OVCAR-5 (Ovarian cancer) = assay: NCI-60 single-dose anticancer screen; format: cell-based, human; conditions: 10 µM single dose
Experimental: as §1, §2

COLO 205 (Colon cancer) = assay: NCI-60 single-dose anticancer screen; format: cell-based, human; conditions: 10 µM single dose
Experimental: as §1, §2

[3] = tested on: HOP-92 (Non-small cell lung cancer); assay: NCI-60 single-dose anticancer screen; format: cell-based, human; conditions: 10 µM single dose; for inhibition at 10 µM: Homo sapiens, read-out: cell growth inhibition
Experimental: as §1, §2

UACC-62 (Melanoma) = assay: NCI-60 single-dose anticancer screen; format: cell-based, human; conditions: 10 µM single dose
Experimental: as §1, §2

CAKI-1 (Renal cancer) = assay: NCI-60 single-dose anticancer screen; format: cell-based, human; conditions: 10 µM single dose
Experimental: as §1, §2

SF-268 (CNS cancer) = assay: NCI-60 single-dose anticancer screen; format: cell-based, human; conditions: 10 µM single dose
Experimental: as §1, §2

HS 578T (Breast cancer) = assay: NCI-60 single-dose anticancer screen; format: cell-based, human; conditions: 10 µM single dose
Experimental: as §1, §2

HCT-15 (Colon cancer) = assay: NCI-60 single-dose anticancer screen; format: cell-based, human; conditions: 10 µM single dose
Experimental: as §1, §2

M14 (Melanoma) = assay: NCI-60 single-dose anticancer screen; format: cell-based, human; conditions: 10 µM single dose
Experimental: as §1, §2

OVCAR-4 (Ovarian cancer) = assay: NCI-60 single-dose anticancer screen; format: cell-based, human; conditions: 10 µM single dose
Experimental: as §1, §2

MALME-3M (Melanoma) = assay: NCI-60 single-dose anticancer screen; format: cell-based, human; conditions: 10 µM single dose
Experimental: as §1, §2

SNB-19 (CNS cancer) = assay: NCI-60 single-dose anticancer screen; format: cell-based, human; conditions: 10 µM single dose
Experimental: as §1, §2

UO-31 (Renal cancer) = assay: NCI-60 single-dose anticancer screen; format: cell-based, human; conditions: 10 µM single dose
Experimental: as §1, §2

SN12C (Renal cancer) = assay: NCI-60 single-dose anticancer screen; format: cell-based, human; conditions: 10 µM single dose
Experimental: as §1, §2

IGROV1 (Ovarian cancer) = assay: NCI-60 single-dose anticancer screen; format: cell-based, human; conditions: 10 µM single dose
Experimental: as §1, §2

CCRF-CEM (Leukaemia) = assay: NCI-60 single-dose anticancer screen; format: cell-based, human; conditions: 10 µM single dose
Experimental: as §1, §2

[4] = tested on: NCI-H226 (Non-small cell lung cancer); assay: NCI-60 single-dose anticancer screen; format: cell-based, human; conditions: 10 µM single dose
Experimental: as §1, §2

SNB-75 (CNS cancer) = assay: NCI-60 single-dose anticancer screen; format: cell-based, human; conditions: 10 µM single dose
Experimental: as §1, §2

SK-OV-3 (Ovarian cancer) = assay: NCI-60 single-dose anticancer screen; format: cell-based, human; conditions: 10 µM single dose
Experimental: as §1, §2

OVCAR-8 (Ovarian cancer) = assay: NCI-60 single-dose anticancer screen; format: cell-based, human; conditions: 10 µM single dose
Experimental: as §1, §2

ACHN (Renal cancer) = assay: NCI-60 single-dose anticancer screen; format: cell-based, human; conditions: 10 µM single dose
Experimental: as §1, §2

RXF 393 (Renal cancer) = assay: NCI-60 single-dose anticancer screen; format: cell-based, human; conditions: 10 µM single dose
Experimental: as §1, §2

DU-145 (Prostate cancer) = assay: NCI-60 single-dose anticancer screen; format: cell-based, human; conditions: 10 µM single dose
Experimental: as §1, §2

[5] = tested on: NCI-H322M (Non-small cell lung cancer); assay: NCI-60 single-dose anticancer screen; format: cell-based, human; conditions: 10 µM single dose
Experimental: as §1, §2

[6] = tested on: NCI-H460 (Non-small cell lung cancer); assay: NCI-60 single-dose anticancer screen; format: cell-based, human; conditions: 10 µM single dose
Experimental: as §1, §2

HCC-2998 (Colon cancer) = assay: NCI-60 single-dose anticancer screen; format: cell-based, human; conditions: 10 µM single dose
Experimental: as §1, §2

OVCAR-3 (Ovarian cancer) = assay: NCI-60 single-dose anticancer screen; format: cell-based, human; conditions: 10 µM single dose
Experimental: as §1, §2

T-47D (Breast cancer) = assay: NCI-60 single-dose anticancer screen; format: cell-based, human; conditions: 10 µM single dose
Experimental: as §1, §2

human VEGFR-2 = target: T1, human VEGFR-2 (Homo sapiens, UniProt P35968); assay: In vitro VEGFR-2 inhibitory assay (colorimetric human VEGFR-2 ELISA, HTScan VEGF Receptor 2 Kinase Assay Kit); format: biochemical; conditions: VEGFR-2 inhibition
T1 construct: It includes active VEGFR-2 kinase; purchased HTScan VEGF Receptor 2 Kinase Assay Kit
Experimental: VEGFR is considered as an important target for the development of potential anti-cancer candidates.
On a 96-well plate, a particular VEGFR-2 antibody was seeded and 100 µL of the normal solution or compound tested was applied, incubated at room temperature for 2.5 h and washed.
Then, 100 µL of the prepared biotin antibody was added, incubated for an additional 1 h at room temperature and washed. Following, 100 µL of streptavidin solution was added at room temperature, incubated for 45 min and then, 100 µL of TMB substrate solution was applied and incubated at room temperature for 30 min. Finally, 50 µL stop solution was added and the absorption was measured at 450 nm instantly. The standard curve, the X-axis concentrations, and the Y-axis absorbance were drawn.

[7] = Homo sapiens, read-out: cell growth inhibition

T1 sequence (P35968 20-1356): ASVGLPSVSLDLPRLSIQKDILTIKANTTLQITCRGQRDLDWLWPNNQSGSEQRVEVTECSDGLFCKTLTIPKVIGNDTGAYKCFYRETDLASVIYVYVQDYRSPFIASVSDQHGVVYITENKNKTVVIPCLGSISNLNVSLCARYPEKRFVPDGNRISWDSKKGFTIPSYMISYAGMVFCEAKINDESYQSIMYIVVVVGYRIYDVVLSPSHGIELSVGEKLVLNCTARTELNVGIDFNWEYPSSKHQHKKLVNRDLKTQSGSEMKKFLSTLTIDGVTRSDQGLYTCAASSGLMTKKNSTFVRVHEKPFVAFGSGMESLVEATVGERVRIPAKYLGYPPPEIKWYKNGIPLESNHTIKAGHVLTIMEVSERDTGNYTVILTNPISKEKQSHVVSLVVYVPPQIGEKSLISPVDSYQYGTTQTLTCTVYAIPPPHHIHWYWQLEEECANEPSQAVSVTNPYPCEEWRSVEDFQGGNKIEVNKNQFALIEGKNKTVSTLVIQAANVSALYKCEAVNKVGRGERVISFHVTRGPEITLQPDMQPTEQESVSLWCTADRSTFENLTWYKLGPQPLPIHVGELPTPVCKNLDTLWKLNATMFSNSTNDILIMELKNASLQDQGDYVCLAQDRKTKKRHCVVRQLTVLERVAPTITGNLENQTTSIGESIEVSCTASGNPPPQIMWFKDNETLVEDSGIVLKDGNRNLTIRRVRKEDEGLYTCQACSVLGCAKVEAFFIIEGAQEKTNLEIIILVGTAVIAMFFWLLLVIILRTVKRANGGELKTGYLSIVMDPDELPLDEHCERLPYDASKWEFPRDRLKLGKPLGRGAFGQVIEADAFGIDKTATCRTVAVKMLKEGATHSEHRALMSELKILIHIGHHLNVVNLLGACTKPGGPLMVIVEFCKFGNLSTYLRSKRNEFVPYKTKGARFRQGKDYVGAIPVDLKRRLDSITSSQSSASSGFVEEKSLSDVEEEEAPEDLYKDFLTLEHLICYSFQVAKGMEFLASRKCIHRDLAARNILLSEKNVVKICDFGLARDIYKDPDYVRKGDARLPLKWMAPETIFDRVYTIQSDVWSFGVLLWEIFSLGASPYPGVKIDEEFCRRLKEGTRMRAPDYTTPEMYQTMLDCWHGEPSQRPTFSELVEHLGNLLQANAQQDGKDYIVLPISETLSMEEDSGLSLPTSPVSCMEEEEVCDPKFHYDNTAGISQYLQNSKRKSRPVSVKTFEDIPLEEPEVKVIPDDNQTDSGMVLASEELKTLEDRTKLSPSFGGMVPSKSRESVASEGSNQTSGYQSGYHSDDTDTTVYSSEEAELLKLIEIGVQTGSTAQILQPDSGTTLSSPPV

Compound: O=C(C=Cc1cccc(F)c1)c1ccc(N2CCNCC2)cc1 [Vd, 3-(3-Fluorophenyl)-1-(4-(piperazin-1-yl)phenyl)prop-2-en-1-one]
- cell growth promotion (HT29 (Colon cancer)): 30.44%
- inhibition at 10 µM (HT29 (Colon cancer)): 69.6%
- cell growth promotion [1]: 95.54%
- cell growth promotion (RPMI-8226 (Leukaemia)): 76.47%
- cell growth promotion (HCT-116 (Colon cancer)): 42.08%
- inhibition at 10 µM (HCT-116 (Colon cancer)): 57.9%
- cell growth promotion (MCF7 (Breast cancer)): 51.72%
- inhibition at 10 µM (MCF7 (Breast cancer); [7]): 48.3%
- cell growth promotion (SK-MEL-28 (Melanoma)): 109.03%
- cell growth promotion [2]: 73.60%
- cell growth promotion (MOLT-4 (Leukaemia)): 68.62%
- cell growth promotion (UACC-257 (Melanoma)): 75.92%
- cell growth promotion (HL-60(TB) (Leukaemia)): 60.38%
- inhibition at 10 µM (HL-60(TB) (Leukaemia); [7]): 39.2%
- cell growth promotion (U251 (CNS cancer)): 72.39%
- cell growth promotion (PC-3 (Prostate cancer)): 66.01%
- cell growth promotion (OVCAR-5 (Ovarian cancer)): 94.72%
- cell growth promotion (COLO 205 (Colon cancer)): 96.91%
- cell growth promotion [3]: 58.41%
- inhibition at 10 µM [3]: 41.6%
- cell growth promotion (UACC-62 (Melanoma)): 79.23%
- cell growth promotion (CAKI-1 (Renal cancer)): 68.63%
- cell growth promotion (SF-268 (CNS cancer)): 85.41%
- cell growth promotion (HS 578T (Breast cancer)): 79.41%
- cell growth promotion (HCT-15 (Colon cancer)): 73.49%
- cell growth promotion (M14 (Melanoma)): 81.16%
- cell growth promotion (OVCAR-4 (Ovarian cancer)): 80.53%
- cell growth promotion (MALME-3M (Melanoma)): 94.15%
- cell growth promotion (SNB-19 (CNS cancer)): 71.95%
- cell growth promotion (UO-31 (Renal cancer)): 76.58%
- cell growth promotion (SN12C (Renal cancer)): 68.16%
- cell growth promotion (IGROV1 (Ovarian cancer)): 67.97%
- cell growth promotion (CCRF-CEM (Leukaemia)): 58.18%
- inhibition at 10 µM (CCRF-CEM (Leukaemia); [7]): 41.8%
- cell growth promotion [4]: 87.11%
- cell growth promotion (SNB-75 (CNS cancer)): 85.44%
- cell growth promotion (SK-OV-3 (Ovarian cancer)): 79.98%
- cell growth promotion (OVCAR-8 (Ovarian cancer)): 67.16%
- cell growth promotion (ACHN (Renal cancer)): 84.70%
- cell growth promotion (RXF 393 (Renal cancer)): 75.94%
- cell growth promotion (DU-145 (Prostate cancer)): 77.70%
- cell growth promotion [5]: 75.26%
- cell growth promotion [6]: 74.45%
- cell growth promotion (HCC-2998 (Colon cancer)): 94.99%
- cell growth promotion (OVCAR-3 (Ovarian cancer)): 93.74%
- cell growth promotion (T-47D (Breast cancer)): 87.54%
- IC50 (human VEGFR-2): 800 nM

Compound: Fc1cnccc1C1CC(c2ccc(N3CCNCC3)cc2)=NN1 (stereo not shown) [VIc, 1-(4-(5-(3-Fluoropyridin-4-yl)-4,5-dihydro-1H-pyrazol-3-yl)phenyl) piperazine]
- cell growth promotion (HT29 (Colon cancer)): 60.16%
- inhibition at 10 µM (HT29 (Colon cancer)): 39.8%
- cell growth promotion [1]: 91.04%
- cell growth promotion (RPMI-8226 (Leukaemia)): 92.51%
- cell growth promotion (HCT-116 (Colon cancer)): 73.82%
- inhibition at 10 µM (HCT-116 (Colon cancer)): 26.2%
- cell growth promotion (MCF7 (Breast cancer)): 73.03%
- cell growth promotion (SK-MEL-28 (Melanoma)): 115.80%
- cell growth promotion [2]: 84.58%
- cell growth promotion (MOLT-4 (Leukaemia)): 74.15%
- cell growth promotion (UACC-257 (Melanoma)): 83.07%
- cell growth promotion (HL-60(TB) (Leukaemia)): 77.32%
- cell growth promotion (U251 (CNS cancer)): 95.06%
- cell growth promotion (PC-3 (Prostate cancer)): 70.34%
- cell growth promotion (OVCAR-5 (Ovarian cancer)): 111.45%
- cell growth promotion (COLO 205 (Colon cancer)): 95.69%
- cell growth promotion [3]: 72.42%
- inhibition at 10 µM [3]: 27.6%
- cell growth promotion (UACC-62 (Melanoma)): 81.93%
- cell growth promotion (CAKI-1 (Renal cancer)): 80.62%
- cell growth promotion (SF-268 (CNS cancer)): 107.32%
- cell growth promotion (HS 578T (Breast cancer)): 89.15%
- cell growth promotion (HCT-15 (Colon cancer)): 97.59%
- cell growth promotion (M14 (Melanoma)): 95.86%
- cell growth promotion (OVCAR-4 (Ovarian cancer)): 108.25%
- cell growth promotion (MALME-3M (Melanoma)): 93.43%
- cell growth promotion (SNB-19 (CNS cancer)): 97.45%
- cell growth promotion (UO-31 (Renal cancer)): 77.18%
- cell growth promotion (SN12C (Renal cancer)): 89.56%
- cell growth promotion (IGROV1 (Ovarian cancer)): 67.96%
- cell growth promotion (CCRF-CEM (Leukaemia)): 80.81%
- cell growth promotion [4]: 82.88%
- cell growth promotion (SNB-75 (CNS cancer)): 101.50%
- cell growth promotion (SK-OV-3 (Ovarian cancer)): 85.00%
- cell growth promotion (OVCAR-8 (Ovarian cancer)): 95.06%
- cell growth promotion (ACHN (Renal cancer)): 99.87%
- cell growth promotion (RXF 393 (Renal cancer)): 104.89%
- cell growth promotion (DU-145 (Prostate cancer)): 107.16%
- cell growth promotion [5]: 89.29%
- cell growth promotion [6]: 94.92%
- cell growth promotion (HCC-2998 (Colon cancer)): 101.72%
- cell growth promotion (OVCAR-3 (Ovarian cancer)): 98.79%
- cell growth promotion (T-47D (Breast cancer)): 82.20%
- IC50 (human VEGFR-2): 1310 nM
